The NIST ThermoML archive (doi:10.1021/je0601098)
± gives the expanded uncertainty stated by the source.

Legend:
[1] = 298.15 K, 101 kPa, Liquid; for speed of sound: Linear variable-path acoustic interferometer
[2] = mn = molality of the nth substance listed, in mol/kg; settings: 298.15 K, 101 kPa, Liquid; for speed of sound: Linear variable-path acoustic interferometer

C1COCCO1 [1,4-dioxane]
[1]
Settings | mass density [kg/m3] | speed of sound [m/s]
– | 1028.34 ± 0.38 | 1346.3 ± 1.9

CCO [ethanol]
[1]
Settings | mass density [kg/m3] | speed of sound [m/s]
– | 785.207 ± 0.58 | 1142.1 ± 1.8

CC#N [acetonitrile] + O
[2]
Settings | mass density [kg/m3] | speed of sound [m/s]
m2 = 0 | 776.389 ± 0.59 | 1281.3 ± 1.9
m2 = 0.1197 | 776.819 ± 0.59 | 1281.5 ± 1.9
m2 = 0.1729 | 777.019 ± 0.59 | 1282 ± 1.9
m2 = 0.2244 | 777.174 ± 0.59 | 1282.2 ± 1.9
m2 = 0.2674 | 777.435 ± 0.59 | 1282.4 ± 1.9
m2 = 0.3192 | 777.518 ± 0.59 | 1282.2 ± 1.9
m2 = 0.4188 | 777.923 ± 0.59 | 1282.6 ± 1.9
m2 = 0.5198 | 778.218 ± 0.59 | 1283 ± 1.9
m2 = 0.621 | 778.584 ± 0.59 | 1284 ± 1.9
m2 = 0.7217 | 778.921 ± 0.59 | 1284.3 ± 1.9
m2 = 0.8212 | 779.276 ± 0.59 | 1284.7 ± 1.9
m2 = 0.9205 | 779.631 ± 0.59 | 1285.5 ± 1.9
m2 = 1.02 | 779.949 ± 0.59 | 1286.5 ± 1.9

CCCO [propan-1-ol] + O
[2]
Settings | mass density [kg/m3] | speed of sound [m/s]
m2 = 0 | 799.683 ± 0.56 | 1207 ± 1.9
m2 = 0.1627 | 800.472 ± 0.56 | 1209 ± 1.9
m2 = 0.217 | 800.732 ± 0.56 | 1209.9 ± 1.9
m2 = 0.2635 | 800.961 ± 0.56 | 1210.1 ± 1.9
m2 = 0.3129 | 801.185 ± 0.56 | 1211.5 ± 1.9
m2 = 0.4209 | 801.664 ± 0.56 | 1213 ± 1.9
m2 = 0.5137 | 802.083 ± 0.56 | 1213.4 ± 1.9
m2 = 0.6196 | 802.528 ± 0.56 | 1214.7 ± 1.9
m2 = 0.7183 | 802.982 ± 0.56 | 1215.8 ± 1.9
m2 = 0.8205 | 803.412 ± 0.56 | 1217.2 ± 1.9
m2 = 0.9191 | 803.833 ± 0.56 | 1218.1 ± 1.9
m2 = 1.005 | 804.252 ± 0.56 | 1219.3 ± 1.9

CN(C)C=O [dimethylformamide]
[1]
Settings | mass density [kg/m3] | speed of sound [m/s]
– | 944.076 ± 0.39 | 1460.2 ± 2

CCCO [propan-1-ol]
[1]
Settings | mass density [kg/m3] | speed of sound [m/s]
– | 799.683 ± 0.56 | 1207 ± 1.9

CCCCO [butan-1-ol]
[1]
Settings | mass density [kg/m3] | speed of sound [m/s]
– | 806.024 ± 0.56 | 1241.6 ± 1.9

C1CCOC1 [tetrahydrofuran] + O
[2]
Settings | mass density [kg/m3] | speed of sound [m/s]
m2 = 0 | 882.056 ± 0.47 | 1280.2 ± 1.9
m2 = 0.1301 | 882.394 ± 0.46 | 1281.2 ± 1.9
m2 = 0.1845 | 882.536 ± 0.46 | 1281.7 ± 1.9
m2 = 0.2263 | 882.674 ± 0.46 | 1282 ± 1.9
m2 = 0.244 | 882.753 ± 0.46 | 1282.4 ± 1.9
m2 = 0.3258 | 882.981 ± 0.46 | 1282.9 ± 1.9
m2 = 0.4247 | 883.242 ± 0.46 | 1283.2 ± 1.9
m2 = 0.525 | 883.543 ± 0.46 | 1283.9 ± 1.9
m2 = 0.6245 | 884.032 ± 0.46 | 1284.6 ± 1.9
m2 = 0.7309 | 884.381 ± 0.46 | 1285.1 ± 1.9
m2 = 0.8254 | 884.726 ± 0.46 | 1286 ± 1.9
m2 = 0.9243 | 885.015 ± 0.46 | 1287 ± 1.9
m2 = 1.029 | 885.427 ± 0.46 | 1288 ± 1.9

CN(C)C=O [dimethylformamide] + O
[2]
Settings | mass density [kg/m3] | speed of sound [m/s]
m2 = 0 | 944.076 ± 0.39 | 1460.2 ± 2
m2 = 0.08457 | 944.384 ± 0.39 | 1461.1 ± 2
m2 = 0.1304 | 944.54 ± 0.39 | 1461.8 ± 2
m2 = 0.1738 | 944.701 ± 0.39 | 1462.4 ± 2
m2 = 0.2315 | 944.826 ± 0.39 | 1463.9 ± 2
m2 = 0.2762 | 945.027 ± 0.39 | 1464.1 ± 2
m2 = 0.3215 | 945.143 ± 0.39 | 1464.2 ± 2
m2 = 0.4146 | 945.584 ± 0.39 | 1465.5 ± 2
m2 = 0.5189 | 945.835 ± 0.39 | 1467.4 ± 2
m2 = 0.6115 | 946.263 ± 0.39 | 1468.1 ± 2
m2 = 0.7123 | 946.49 ± 0.39 | 1469.4 ± 2
m2 = 0.81 | 946.853 ± 0.39 | 1470.7 ± 2
m2 = 0.9044 | 947.103 ± 0.39 | 1472.3 ± 2
m2 = 1.001 | 947.417 ± 0.39 | 1473.3 ± 2

CO [methanol] + O
[2]
Settings | mass density [kg/m3] | speed of sound [m/s]
m2 = 0 | 786.66 ± 0.58 | 1103.8 ± 1.8
m2 = 0.1566 | 787.454 ± 0.58 | 1106 ± 1.8
m2 = 0.2143 | 787.724 ± 0.58 | 1106.2 ± 1.8
m2 = 0.2641 | 788.016 ± 0.58 | 1106.2 ± 1.8
m2 = 0.3211 | 788.308 ± 0.58 | 1107.2 ± 1.8
m2 = 0.4121 | 788.789 ± 0.58 | 1107.9 ± 1.8
m2 = 0.5085 | 789.27 ± 0.58 | 1109.8 ± 1.8
m2 = 0.6159 | 789.834 ± 0.58 | 1112.6 ± 1.8
m2 = 0.7089 | 790.308 ± 0.58 | 1113.4 ± 1.8
m2 = 0.8074 | 790.823 ± 0.58 | 1114.4 ± 1.8
m2 = 0.9136 | 791.368 ± 0.58 | 1117.1 ± 1.8
m2 = 1.018 | 791.86 ± 0.57 | 1118 ± 1.8

C1CCOC1 [tetrahydrofuran]
[1]
Settings | mass density [kg/m3] | speed of sound [m/s]
– | 882.056 ± 0.47 | 1280.2 ± 1.9

CCO [ethanol] + O
[2]
Settings | mass density [kg/m3] | speed of sound [m/s]
m2 = 0 | 785.207 ± 0.58 | 1142.1 ± 1.8
m2 = 0.214 | 786.407 ± 0.58 | 1144.6 ± 1.8
m2 = 0.2705 | 786.72 ± 0.58 | 1145.9 ± 1.8
m2 = 0.3199 | 786.998 ± 0.58 | 1146.8 ± 1.8
m2 = 0.3659 | 787.262 ± 0.58 | 1148.6 ± 1.8
m2 = 0.4543 | 787.753 ± 0.58 | 1151 ± 1.8
m2 = 0.5541 | 788.3 ± 0.58 | 1153.2 ± 1.8
m2 = 0.6437 | 788.782 ± 0.58 | 1154.8 ± 1.8
m2 = 0.743 | 789.321 ± 0.58 | 1156.4 ± 1.8
m2 = 0.8349 | 789.775 ± 0.58 | 1157.7 ± 1.8
m2 = 0.9264 | 790.279 ± 0.58 | 1159.5 ± 1.8
m2 = 1.019 | 790.734 ± 0.58 | 1160.1 ± 1.8

CC#N [acetonitrile]
[1]
Settings | mass density [kg/m3] | speed of sound [m/s]
– | 776.389 ± 0.59 | 1281.3 ± 1.9

CO [methanol]
[1]
Settings | mass density [kg/m3] | speed of sound [m/s]
– | 786.66 ± 0.58 | 1103.8 ± 1.8

C1COCCO1 [1,4-dioxane] + O
[2]
Settings | mass density [kg/m3] | speed of sound [m/s]
m2 = 0 | 1028.34 ± 0.38 | 1346.3 ± 1.9
m2 = 0.07165 | 1028.35 ± 0.38 | 1347.1 ± 1.9
m2 = 0.1214 | 1028.36 ± 0.38 | 1347.8 ± 1.9
m2 = 0.1625 | 1028.37 ± 0.38 | 1348.4 ± 1.9
m2 = 0.2272 | 1028.39 ± 0.38 | 1349.2 ± 1.9
m2 = 0.3262 | 1028.42 ± 0.38 | 1350 ± 1.9
m2 = 0.4214 | 1028.46 ± 0.38 | 1350.9 ± 1.9
m2 = 0.6512 | 1028.57 ± 0.38 | 1353 ± 1.9
m2 = 0.8375 | 1028.67 ± 0.38 | 1354.8 ± 1.9
m2 = 1.022 | 1028.78 ± 0.38 | 1356.5 ± 1.9

CCCCO [butan-1-ol] + O
[2]
Settings | mass density [kg/m3] | speed of sound [m/s]
m2 = 0 | 806.024 ± 0.56 | 1241.6 ± 1.9
m2 = 0.1588 | 806.701 ± 0.56 | 1242.9 ± 1.9
m2 = 0.2034 | 806.906 ± 0.56 | 1243.3 ± 1.9
m2 = 0.2526 | 807.034 ± 0.56 | 1243.2 ± 1.9
m2 = 0.3019 | 807.215 ± 0.56 | 1243.6 ± 1.9
m2 = 0.3998 | 807.558 ± 0.56 | 1244.5 ± 1.9
m2 = 0.5007 | 807.906 ± 0.56 | 1246.2 ± 1.9
m2 = 0.6011 | 808.262 ± 0.56 | 1247 ± 1.9
m2 = 0.705 | 808.615 ± 0.55 | 1248 ± 1.9
m2 = 0.8032 | 808.946 ± 0.55 | 1248.8 ± 1.9
m2 = 0.9017 | 809.283 ± 0.55 | 1249.7 ± 1.9
